Assay results reported in paper PMC5059921, “Chalepin: isolated from Ruta angustifolia L. Pers induces mitochondrial mediated apoptosis in lung carcinoma cells” (BMC Complementary and Alternative Medicine, 2016).

Legend:
[1] = system: A549 cells; test: DNA fragmentation by APO-BrdU TUNEL assay; format: cell-based, human
Procedure: DNA strand breaks in apoptotic cells caused by the activation of endonucleases, were detected by APO-BrdU TUNEL assay kit. After incubation with various concentrations of chalepin at 48 and 72 h, cells were harvested and washed with PBS. Next, the cells were fixed with 1 % (w/v) paraformaldehyde for 15 mins, then washed with PBS, and fixed with 70 % (v/v) ethanol overnight. Ethanol was removed by centrifugation and DNA labeling steps were performed according to the manual provided in the kit. Samples were analyzed by flow cytometer and a minimum of 10,000 events were acquired for each replicate.

[2] = system: A549 cells; test: Apoptosis detection by Annexin V-FITC/PI staining (flow cytometry); format: cell-based, human; settings: incubation time not stated
Procedure: FITC annexin V apoptosis detection kit (BD) was used to detect apoptosis. Cells were seeded in tissue culture dishes (5000-7000 cells/dish) and allowed to adhere overnight. Next, the cells were treated with various concentrations of chalepin for 48 and 72 h. The cells were harvested, washed, and resuspended in 1x binding buffer according to the manual provided in the kit. In the next step, the cells were stained in the ratio of per 100,000 cells; staining of cells with 5 μL of FITC-annexin V and 5 μL of propidium iodide was done for 15 min. Then, 200 μL of 1× binding buffer was added to each sample. Unstained and single-stained untreated cells were also included as controls. A minimum number of 10,000 events was acquired for each replicate using Accuri C6 flow cytometer. A quadrant statistic was used to measure the population of viable, early apoptotic, late apoptotic and secondary necrotic cells. The determination betweent these different populations were obtained by estimating quantitatively the cells that were AnnexinV/PI stained.

[3] = system: A549 cells; test: Mitochondrial membrane potential assay (JC-1, flow cytometry); format: cell-based; settings: Homo sapiens, A549, 48 h, read-out: JC-1 dot plot: Viable
Procedure: A lipophilic and cell-permeable fluorochrome JC-1 (5,5’,6,6’-tetrachloro-1,1’,3,3’-tetraethyl benzimidazolyl carbocyanine iodide), was used to measure mitochondrial membrane potential (Δψm) according to the manufacturer’s instructions (BD MitoScreen Kit). The cells (1×10^6) were seeded in tissue culture plates and were treated with 18, 27, 36, and 45 μg/ml of chalepin for 48 h incubation. The cells were then harvested, washed with PBS twice and incubated with JC-1 dye for 15 mins at 37°C. At the end of the incubation, the cells were washed and resuspended with 500 μl of 1x assay buffer (provided in the kit). The intracellular fluorescence signals of JC-1 in the cells were then measured with Accuri C6 flow cytometer. Approximately 10,000 events were recorded per analysis. In healthy cells, JC-1 accumulates as aggregates in the mitochondria and emits red fluorescence. In cells, which have undergone apoptosis, JC-1 remains in monomeric form in the cytoplasm and emits green fluorescence. The red and green fluorescence were detected at FL-2 and FL-1 channels respectively in the flow cytometer. Ratio of mean fluorescence intensity between the FL1 and FL2 channels were calculated and this is used to determine the changes in the mitochondrial membrane potential. The results were analysed by calculating the ratio of JC-1 dimers to JC-1 monomers. A […] ratio indicated a […] membrane depolarization of mitochondria in cells (BD MitoScreen Flow Cytometry Mitochondrial Membrane Potential Detection Kit Instruction Manual). Cells that was untreated in 0.5 % DMSO acted as the control.
JC-1 (5,5’,6,6’-tetrachloro-1,1’,3,3’-tetraethyl benzimidazolyl carbocyanine iodide) mitochondrial membrane potential assay kit by Abcam was used to stain the A549 cells to view the mitochondrial membrane potential (Δψm) changes in cells. Prior to the JC-1 staining initiation, 1x dilution buffer were prepared by adding 10 mL 10× dilution buffer to 90 mL deionized water. The solution was mixed gently and throughly. JC-1 stock (1mM) was diluted to 20 μM working JC-1 solution. This was done by adding 200 μl of JC-1 stock solution into 10 mL of 1× dilution buffer. The cells (1×10^6) were seeded in tissue culture plates and were treated with 18, 27, 36, and 45 μg/ml of chalepin for 48 and 72 h incubation. The cells were then harvested, washed with PBS twice and incubated with JC-1 dye for 20 mins at 37 °C. At the end of the incubation, the cells were washed and resuspended with 1000 μl of 1× dilution buffer. The cells were viewed using a fluorescence microscope at an excitation wavelength of Ex475 ± 20nm and emission wavelength of Em530 ± 15 nm and 590 ± 17.5 nm. The images were captured and recorded.

[4] = system: caspase 9 in A549 cells; test: Caspase-9 activity (CaspILLUME, flow cytometry); format: cell-based, human; settings: 45 μg/ml
Procedure: (§1) Caspase activity assays were performed according to the instructions in the manual (CaspILLUME, Genetex). Cells were seeded at a density of 1×10^6 cells per culture dish. After being subjected to treatment for 48 and 72 h, the cells were detached with accutase, washed, and resuspended in PBS. Next, 300 μL of each sample was aliquoted into centrifuge tubes, after which 1 μL of fluorescent substrate (FITC-DEVD-FMK for caspase 3 and FITC-LEHD-FMK for caspase 9 activity) was added to each tube and incubated for 1 h at 37°C incubator. At the end of the incubation period, the cells were centrifuged at 3000 rpm for 5 min and the supernatant was removed. After that, the cells were resuspended in 0.5 mL wash buffer (provided in the kit) and centrifuged at 3000 rpm for 5 min. This step was repeated before performing the analysis with flow cytometer (Accuri C6) and a minimum of 10,000 events were acquired for each replicate.

[5] = system: A549 cells; test: Western blot analysis of apoptotic proteins; format: cell-based, human
[6] = system: hepatitis C virus, hepatoma cell line (Huh7.5); design: method as in PMID 25454460; settings: cited from earlier work
[7] = system: caspase 3 in A549 cells; test: Caspase-3 activity (CaspILLUME, flow cytometry); format: cell-based, human; settings: for active caspase 3, V1-R (apoptotic population): 45 ug/ml; for fold increase of caspase 3 activity vs untreated control: 45 μg/ml
Procedure: as §1

[8] = A549, 36 μg/ml, 2,4,8,12 and 24 h

C=CC(C)(C)c1cc2cc3c(cc2oc1=O)O[C@H](C(C)(C)O)C3 [Chalepin, chalepin]
DNA fragmentation, R3 (TUNEL positive cells) ([1]; A549, 48 h, 45 μg/ml): 38.5 ± 0.70% | DNA fragmentation, R3 (TUNEL positive cells) ([1]; A549, 72 h, 36 μg/ml): 73.50 ± 0.20% | DNA fragmentation, R3 (TUNEL positive cells) ([1]; A549, 72 h, 45 μg/ml): 66.50 ± 0.29% | Annexin V positive cells (early and late apoptotic) ([2]; A549, 9 μg/ml): 7.27 ± 0.16% | Annexin V positive cells (early and late apoptotic) ([2]; A549, 45 μg/ml): 20.6 ± 0.53% | viability at 18 µg/mL [3]: 78.3% | viability at 27 µg/mL [3]: 68.2% | viability at 36 µg/mL [3]: 54.2% | viability at 45 µg/mL [3]: 52.9% | active caspase 9, V1-R (apoptotic population) ([4]; A549, 48 h): 22.57 ± 0.21% | active caspase 9, V1-R (apoptotic population) ([4]; A549, 72 h): 33.5 ± 0.35% | fold increase in activation of caspase 9 vs untreated control ([4]; A549, 72 h): 8.44 fold | Procaspase 3 [5, 8]: downregulation | Procaspase 9 [5, 8]: downregulation | anti-apoptotic gene products Bcl-2, survivin, XIAP, Bcl-xl and cFLIP [5, 8]: downregulate | cleaved caspase 3 [5, 8]: upregulation | expression of Bax [5, 8]: upregulation | expression of cytochrome c [5, 8]: upregulation | expression of p53 [5, 8]: upregulation | quantity of PARP expressed [5, 8]: decreased with time | Bak ([5]; A549, 36 μg/ml, time dependently): upregulated | replication of hepatitis C virus [6]: stop the replication | active caspase 3, V1-R (apoptotic population) ([7]; A549, 48 h): 26.40 ± 0.79% | fold increase of caspase 3 activity vs untreated control ([7]; A549, 48 h): 9.32 fold | active caspase 3, V1-R (apoptotic population) ([7]; A549, 72 h): 49.07 ± 0.63% | fold increase of caspase 3 activity vs untreated control ([7]; A549, 72 h): 8.71 fold
